Experimental data taken from paper PMC9822133, “Design, Synthesis and Antiproliferative Evaluation of Bis-Indole Derivatives with a Phenyl Linker: Focus on Autophagy” (Molecules, 2022).

Key:
Format in all cases: cell-based, human
[1] = system: p62/SQSTM1; test: Western blot, p62; details: A549, 24, 48, 72 h, p < 0.001 vs DMSO
Excerpt: Protein p62, also known as sequestosome 1, is a multifunctional, classic autophagy receptor, considered together with LC3AB as an important marker of ongoing autophagic flux. It is involved in cell signaling, metabolism, oxidative stress and cell death. Its main function is the degradation of misfolded proteins through the ubiquitin–proteasome system (UPS) and autophagy, thereby maintaining intracellular proteostasis. P62 binds the autophagosomal membrane protein LC3 and brings p62-containing cytoplasmic contents to the autophagosome for degradation. […] This protein is normally degraded during autophagy after interaction with LC3 II [26]. On the other hand, accumulation of p62 has also been cited in cancer cells exposed to a variety of potential anticancer compounds [27, 28, 29].
(§1) A549 cells were seeded on Petri dishes (55 cm^2) at a density of 1 × 10^6 and allowed to culture in the medium. After 24 h, the test substance was added, and the cells were incubated for 24, 48 and 72 h. […] After lysis, the cells were sonicated, and the protein concentration in the samples was quantified using the Pierce® BCA Protein Assay Kit (Thermo Scientific, Rockford, IL, USA) and measured by an automated Cytation™ 3 Cell Imaging Multi-Mode Reader (Biotek) at a wavelength of 570 nm. […]

[2] = system: LC3A/B; test: Western blot, LC3A/B; details: A549, all time periods
Excerpt: LC3A/B, a microtubule-associated protein 1A/1B-light chain 3 (LC3), is a soluble intracellular protein. After synthesis of the pro-LC3 protein, this protein is first cleaved to form its cytosolic form known as LC3-I. The cytosolic form of LC3 (LC3-I) conjugates with phosphatidylethanolamine to form the LC3-phosphatidylethanolamine conjugate (LC3-II), which is recruited to autophagosomal membranes. After the formation of autophagosomes, their fusion with lysosomes occurs, autolysosomes are formed, and intra-autophagosomal material (cytoplasmic components including cytosolic proteins and organelles) is degraded by lysosomal hydrolases. Changes in the levels of the autophagosomal marker LC3-II are considered a sign of ongoing autophagy, and its lysosomal turnover thus reflects autophagic activity. […] Association of LC3A/B up-regulation and autophagy induction has also been referred previously.
as §1

[3] = system: Atg7; test: Western blot, Atg7; details: A549, 24, 48, 72 h
Excerpt: Atg7 belongs to the family of Atg (autophagy-related) proteins involved in the process of autophagy. A ubiquitin-like conjugation system is required for autophagosome formation. The Atg7 protein is an E1-like activating enzyme that ensures the conjugation reaction and is essential for successful conversion of cytosolic LC3-I to its conjugated form, LC3-II.. […] Similar results were reported earlier. Hseu et al. studied the effect of a natural chalcone, flavokawain B, on A549 lung cancer cells. […] Moreover, in curcumin-induced autophagy, up-regulation of beclin-1 has also been observed.
A549 cells were seeded on Petri dishes (55 cm^2) at a density of 1 × 10^6 and allowed to culture in the medium. After 24 h, the test substance was added, and the cells were incubated for 24, 48 and 72 h. Subsequently, the cells were lysed with ice-cold Laemli buffer solution containing glycerol, 1M Tris/HCl (pH 6.8), 20% sodium dodecyl sulphate (SDS), deionized water and mixtures of phosphatase and protease inhibitors. After lysis, the cells were sonicated, and the protein concentration in the samples was quantified using the Pierce® BCA Protein Assay Kit (Thermo Scientific, Rockford, IL, USA) and measured by an automated Cytation™ 3 Cell Imaging Multi-Mode Reader (Biotek) at a wavelength of 570 nm. […]

[4] = system: superoxide dismutase (SOD); test: SOD activity in treated A549 cells; details: A549, 20 µM
Excerpt: (§2) Glutathione is an important intracellular molecule involved in carcinogen detoxification. On the other hand, its elevated state in cancer cells is often associated with resistance to chemotherapy. […] Because high levels of GSH are associated with cancer cell resistance, the GHS-depleting effect of compound 49 could be interesting due to new cancer chemosensitizer development. In the case of GST and GR, we hypothesize that an increase in the activity of both enzymes may be a compensatory mechanism induced by GSH depletion.
(§3) Both floating and adherent A549 cells were harvested at 24, 48, and 72 h after treatment with compound 49 (20 µM). SOD determination kit, Glutathione Peroxidase Cellular Activity Assay kit, Glutathione Reductase Assay Kit and Glutathione-S-transferase (GST) Assay Kit (all Sigma Aldrich, Germany) were used for the detection of relevant enzyme activity. Reduced glutathione (GSH) content was measured by the method originally described by Floreani et al.. Assays were performed on an M 501 single beam UV/VIS spectrophotometer (Spectronic Camspec Ltd., Leeds, United Kingdom). All measured parameters were calculated per milligram or gram of protein determined using the bicinchoninic acid assay.

[5] = system: glutathione peroxidase (GPx); test: GPx activity in treated A549 cells; details: A549, 20 µM
Excerpt: as §2, §3

[6] = system: glutathione (GSH); test: GSH content in treated A549 cells; details: A549, 20 µM
Excerpt: as §2, §3

Structure (SMILES): CC(C)(C)OC(=O)n1cc(CNC(=O)Nc2ccc(NC(=O)NCc3cn(C(=O)OC(C)(C)C)c4ccccc34)cc2)c2ccccc21 [Compound 49, N,N′-(1,4-phenylene)bis{N′-[1-(tert-butoxycarbonyl)indol-3-yl]methyl (urea)}]
- p62 expression [1]: significant increase
- LC3A/B protein expression [2]: significantly increased
- levels of Atg7 [3]: significantly increased
- SOD ([4]; 24 h): 0.408 ± 0.24 μkat/mg Prot
- SOD ([4]; 48 h): 0.526 ± 0.27 μkat/mg Prot
- SOD ([4]; 72 h): 0.523 ± 0.38 μkat/mg Prot
- GPx ([5]; 24 h): 0.148 ± 0.021 μkat/mg Prot
- GPx ([5]; 48 h): 0.139 ± 0.028 μkat/mg Prot
- GPx ([5]; 72 h): 0.077 ± 0.038 μkat/mg Prot
- GSH ([6]; 24 h): 0.395 ± 0.043 nmol/mg Prot
- GSH ([6]; 48 h): 0.107 ± 0.015 nmol/mg Prot
- GSH ([6]; 72 h): 0.228 ± 0.062 nmol/mg Prot
